Series [1] has as its target T1, p38-α kinase (Homo sapiens, UniProt Q16539). The series can be described thus: biochemical. The conditions noted are these: for inhibition at 15 µM: read-out: % Inhibition of p38α kinase at 15 μM; for inhibition at 0.2 µM: read-out: percent inhibition of p38α at 200 nM.
A short description of series [2]: Molar refraction (MR) of the ortho substituent as a measure of its size. The class given is physicochemical. The conditions noted are these: as described by Hansch, J Med Chem 1973. As for the experimental part: The molar refraction values for the ortho derivatives containing chloro, bromo and methoxy substituents were determined as a measure of the size of the substituent as described by Hansch, C. et al., J Med Chem (1973) 16:1207-1216. A linear correlation between the MR values and percent inhibition of p38α at 200 nM concentrations of the compounds was obtained. […] Thus, it appears that the ability to inhibit p38α kinase is dependent on the size of the ortho substituent. While not intending to be bound by any theory, applicants believe that the bulkier substituents rotate the aroyl moiety out of the plane of the piperidine or piperazine ring.

Series [3] concerns the target T1, p38-α kinase. The conditions noted are these: 15 μM compound.

As a reminder, the IC50 is the concentration that gives 50% inhibition. A low value points to greater potency in that assay. What is called inhibition is the share of the control response that was lost under treatment.

T1 sequence (Q16539 whole entry): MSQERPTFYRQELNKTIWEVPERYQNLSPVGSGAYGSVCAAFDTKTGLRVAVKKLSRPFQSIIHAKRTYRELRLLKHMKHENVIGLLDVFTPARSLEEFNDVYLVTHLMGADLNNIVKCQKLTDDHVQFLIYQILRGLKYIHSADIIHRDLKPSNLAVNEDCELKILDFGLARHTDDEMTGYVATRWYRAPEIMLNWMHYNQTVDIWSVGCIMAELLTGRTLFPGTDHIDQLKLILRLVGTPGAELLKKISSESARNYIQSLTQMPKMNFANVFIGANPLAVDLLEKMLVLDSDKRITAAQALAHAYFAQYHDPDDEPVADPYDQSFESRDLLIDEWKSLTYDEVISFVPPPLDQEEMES

`COc1ccc(C(=O)N2CCC(Cc3ccccc3)CC2)cc1` [compound 2, 1-(4-methoxybenzoyl)-4-benzyl piperidine] came in with a half-inhibitory concentration (IC50) against p38-α kinase [1] of 605 nM.

In the case of `COc1cccc(C(=O)N2CCC(Cc3ccccc3)CC2)c1` [compound 5, 1-(3-methoxybenzoyl)-4-benzyl piperidine], the IC50 at p38-α kinase [1] is 1100 nM.

Consider `O=C(c1ccccc1Cl)N1CCC(Cc2ccccc2)CC1` [compound 7, 1-(2-chlorobenzoyl)-4-benzyl piperidine], for which, in series [2], the “MR value (molar refraction)” value is “about 6”. On p38-α kinase [1], the inhibition at 15 µM amounted to 99% and the inhibition at 0.2 µM came to 52%.

`O=C(c1ccccc1Br)N1CCC(Cc2ccccc2)CC1` [compound 8, 1-(2-bromobenzoyl)-4-benzyl piperidine]: in series [2], the “MR value (molar refraction)” value was “approximately 9”. At p38-α kinase [1], the inhibition at 15 µM is 99% and the inhibition at 0.2 µM worked out at 72%.

Consider `COc1ccccc1C(=O)N1CCC(Cc2ccccc2)CC1` [compound 10, 1-(2-methoxybenzoyl)-4-benzyl piperidine], for which the “MR value (molar refraction)” value in series [2] is “about 8”.

Consider `Cc1ccccc1C(=O)N1CCC(Cc2ccccc2)CC1` [compound 11, 1-(2-methylbenzoyl)-4-benzyl piperidine], for which the inhibition at 15 µM at p38-α kinase [1] amounted to 98%.

As for `O=C(c1cccc(Br)c1)N1CCC(Cc2ccccc2)CC1` [meta-Br], the “% Inhibition of p38α kinase at 15 μM” value on p38-α kinase [3] was 74%.

In the case of `O=C(c1cccc(C(F)(F)F)c1)N1CCC(Cc2ccccc2)CC1` [meta-CF3], on p38-α kinase [3], the “% Inhibition of p38α kinase at 15 μM” value is recorded as 49%.

For the molecule `O=C(c1cccc(Cl)c1)N1CCC(Cc2ccccc2)CC1` [meta-Cl], the “% Inhibition of p38α kinase at 15 μM” value on p38-α kinase [3] stood at 80%.

For `O=C(c1cccc(F)c1)N1CCC(Cc2ccccc2)CC1` [meta-F], the “% Inhibition of p38α kinase at 15 μM” value on p38-α kinase [3] was found to be 92%.

Regarding `Cc1cccc(C(=O)N2CCC(Cc3ccccc3)CC2)c1` [meta-methyl], on p38-α kinase [3], the “% Inhibition of p38α kinase at 15 μM” value amounted to 90%.

With `O=C(c1ccccc1C(F)(F)F)N1CCC(Cc2ccccc2)CC1` [ortho-CF3], the “% Inhibition of p38α kinase at 15 μM” value on p38-α kinase [3] is on record as 98%.

As to `O=C(c1ccccc1F)N1CCC(Cc2ccccc2)CC1` [ortho-F], the “% Inhibition of p38α kinase at 15 μM” value on p38-α kinase [3] is 98%.

As to `O=C(c1ccc(Br)cc1)N1CCC(Cc2ccccc2)CC1` [para-Br], the “% Inhibition of p38α kinase at 15 μM” value at p38-α kinase [3] is given as 96%.

On to `O=C(c1ccc(C(F)(F)F)cc1)N1CCC(Cc2ccccc2)CC1` [para-CF3], for which the “% Inhibition of p38α kinase at 15 μM” value on p38-α kinase [3] came out at 66%.

For `O=C(c1ccc(Cl)cc1)N1CCC(Cc2ccccc2)CC1` [para-Cl], the “% Inhibition of p38α kinase at 15 μM” value on p38-α kinase [3] came out at 85%.

With `O=C(c1ccc(F)cc1)N1CCC(Cc2ccccc2)CC1` [para-F], the “% Inhibition of p38α kinase at 15 μM” value on p38-α kinase [3] stood at 94%.

As to `Cc1ccc(C(=O)N2CCC(Cc3ccccc3)CC2)cc1` [para-methyl], the “% Inhibition of p38α kinase at 15 μM” value at p38-α kinase [3] is on record as 97%.

The record behind these values is patent US6541477B2, “Inhibitors of p38-a kinase” (Scios, Inc., priority 1999, dated 2003).
